Assays:
[1] = target: SkMII (skeletal muscle myosin II); assay: NADH-linked ATPase assay, quadratic […] binding fit; type: biochemical
[2] = target: CMII (bovine cardiac myosin II, MYH7) (Bos taurus, UniProt Q9BE39); assay: as above; type: biochemical
CMII (bovine cardiac myosin II, MYH7), sequence (Q9BE39 whole entry): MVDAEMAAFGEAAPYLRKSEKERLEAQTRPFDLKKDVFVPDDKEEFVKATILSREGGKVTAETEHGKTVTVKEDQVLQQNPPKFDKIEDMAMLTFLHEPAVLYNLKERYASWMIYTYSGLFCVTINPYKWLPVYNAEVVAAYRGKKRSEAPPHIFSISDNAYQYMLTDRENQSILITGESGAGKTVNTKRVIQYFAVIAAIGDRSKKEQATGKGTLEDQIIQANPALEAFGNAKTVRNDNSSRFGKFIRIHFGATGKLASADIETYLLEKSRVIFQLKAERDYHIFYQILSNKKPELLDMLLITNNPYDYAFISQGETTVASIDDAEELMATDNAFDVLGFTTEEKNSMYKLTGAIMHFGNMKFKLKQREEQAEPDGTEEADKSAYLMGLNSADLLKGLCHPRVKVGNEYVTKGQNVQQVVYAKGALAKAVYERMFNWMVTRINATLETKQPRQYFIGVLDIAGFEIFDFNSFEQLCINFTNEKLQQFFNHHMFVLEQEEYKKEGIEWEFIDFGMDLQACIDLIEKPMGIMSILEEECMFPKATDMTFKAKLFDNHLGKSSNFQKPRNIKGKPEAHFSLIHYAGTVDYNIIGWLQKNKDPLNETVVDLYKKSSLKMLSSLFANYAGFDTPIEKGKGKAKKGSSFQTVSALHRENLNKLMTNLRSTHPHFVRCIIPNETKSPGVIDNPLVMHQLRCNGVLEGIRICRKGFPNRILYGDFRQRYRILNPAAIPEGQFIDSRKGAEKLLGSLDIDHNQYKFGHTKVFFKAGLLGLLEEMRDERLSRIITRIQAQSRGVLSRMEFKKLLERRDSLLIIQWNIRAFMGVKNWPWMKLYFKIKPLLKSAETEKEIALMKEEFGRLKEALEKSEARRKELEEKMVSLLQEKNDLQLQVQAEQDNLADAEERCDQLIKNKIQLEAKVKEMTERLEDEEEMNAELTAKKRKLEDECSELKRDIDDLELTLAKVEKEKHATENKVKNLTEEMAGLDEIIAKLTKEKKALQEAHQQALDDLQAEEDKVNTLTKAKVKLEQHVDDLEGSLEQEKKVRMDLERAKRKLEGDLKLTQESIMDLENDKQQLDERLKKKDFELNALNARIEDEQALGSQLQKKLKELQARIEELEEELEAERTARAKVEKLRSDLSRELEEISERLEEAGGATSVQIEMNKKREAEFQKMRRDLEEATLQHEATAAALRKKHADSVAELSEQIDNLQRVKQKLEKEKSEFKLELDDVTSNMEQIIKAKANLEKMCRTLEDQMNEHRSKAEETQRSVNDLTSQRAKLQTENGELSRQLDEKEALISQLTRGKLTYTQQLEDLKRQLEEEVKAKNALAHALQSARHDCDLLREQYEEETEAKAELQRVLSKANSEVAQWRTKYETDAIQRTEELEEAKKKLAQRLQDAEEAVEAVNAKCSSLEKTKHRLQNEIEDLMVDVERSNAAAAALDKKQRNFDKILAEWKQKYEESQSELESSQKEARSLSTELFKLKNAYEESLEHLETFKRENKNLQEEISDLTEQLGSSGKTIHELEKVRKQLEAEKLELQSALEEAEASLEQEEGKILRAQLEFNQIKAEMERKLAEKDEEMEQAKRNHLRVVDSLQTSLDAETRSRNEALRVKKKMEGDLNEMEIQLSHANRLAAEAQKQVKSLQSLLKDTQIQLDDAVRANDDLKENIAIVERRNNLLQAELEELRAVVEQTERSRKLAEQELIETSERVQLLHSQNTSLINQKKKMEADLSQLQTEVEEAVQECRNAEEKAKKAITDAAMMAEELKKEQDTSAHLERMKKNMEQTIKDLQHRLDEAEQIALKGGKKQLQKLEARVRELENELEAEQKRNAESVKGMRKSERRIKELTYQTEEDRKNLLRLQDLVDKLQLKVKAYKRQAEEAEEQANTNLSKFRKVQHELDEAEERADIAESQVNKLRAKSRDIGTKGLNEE

Ki [1] | Ki [2] | Compound
280 nM | 1.9 µM | Cc1ccc2c(c1)C(=O)[C@]1(O)CCN(c3ccccc3)C1=N2 [Blebbistatin]
790 nM | > 56 µM | Cc1ccc2c(c1)C(=O)[C@]1(O)CCN(c3ccc(N4CCOCC4)cc3)C1=N2 [Skeletostatin 3, (S)-3a-hydroxy-6-methyl-1-(4-morpholinophenyl)-1,2,3,3a-tetrahydro-4H-pyrrolo[2,3-b]quinolin-4-one]
480 nM | 83 µM | Cc1ccc2c(c1)C(=O)[C@]1(O)CCN(c3cnc4nc(C)oc4c3)C1=N2 [Skeletostatin 1, (S)-3a-hydroxy-6-methyl-1-(2-methyloxazolo[4,5-b]pyridin-6-yl)-1,2,3,3a-tetrahydro-4H-pyrrolo[2,3-b]quinolin-4-one]
270 nM | 34 µM | CC(=O)Nc1ccc(N2CC[C@@]3(O)C(=O)c4cc(C)ccc4N=C23)cc1 [Skeletostatin 2, (S)-N-(4-(3a-hydroxy-6-methyl-4-oxo-2,3,3a,4-tetrahydro-1H-pyrrolo[2,3-b]quinolin-1-yl)phenyl)acetamide]
